Here are results for nine compounds from patent US9636418B2 (priority 2013, dated 2017).

pIC50: −log10 of the molar value.

Common to all, as to experiment: cell-based
One assay addresses hNav1.7 (Homo sapiens, UniProt Q15858). It counts as cell-based. The note with it: PatchXpress, tonic block; read-out: PX hNav1.7 Tonic IC50.
The target in a further assay is hNav1.5 (Homo sapiens, UniProt Q14524). The note with it: PatchXpress, tonic block; read-out: PX hNav1.5 Tonic IC50.
Another assay concerns the target hNav1.4 (Homo sapiens, UniProt P35499). The note with it: for pIC50: PatchXpress, tonic block, read-out: PX hNav1.4 Tonic IC50.

Sequence of hNav1.7 (Q15858 whole entry): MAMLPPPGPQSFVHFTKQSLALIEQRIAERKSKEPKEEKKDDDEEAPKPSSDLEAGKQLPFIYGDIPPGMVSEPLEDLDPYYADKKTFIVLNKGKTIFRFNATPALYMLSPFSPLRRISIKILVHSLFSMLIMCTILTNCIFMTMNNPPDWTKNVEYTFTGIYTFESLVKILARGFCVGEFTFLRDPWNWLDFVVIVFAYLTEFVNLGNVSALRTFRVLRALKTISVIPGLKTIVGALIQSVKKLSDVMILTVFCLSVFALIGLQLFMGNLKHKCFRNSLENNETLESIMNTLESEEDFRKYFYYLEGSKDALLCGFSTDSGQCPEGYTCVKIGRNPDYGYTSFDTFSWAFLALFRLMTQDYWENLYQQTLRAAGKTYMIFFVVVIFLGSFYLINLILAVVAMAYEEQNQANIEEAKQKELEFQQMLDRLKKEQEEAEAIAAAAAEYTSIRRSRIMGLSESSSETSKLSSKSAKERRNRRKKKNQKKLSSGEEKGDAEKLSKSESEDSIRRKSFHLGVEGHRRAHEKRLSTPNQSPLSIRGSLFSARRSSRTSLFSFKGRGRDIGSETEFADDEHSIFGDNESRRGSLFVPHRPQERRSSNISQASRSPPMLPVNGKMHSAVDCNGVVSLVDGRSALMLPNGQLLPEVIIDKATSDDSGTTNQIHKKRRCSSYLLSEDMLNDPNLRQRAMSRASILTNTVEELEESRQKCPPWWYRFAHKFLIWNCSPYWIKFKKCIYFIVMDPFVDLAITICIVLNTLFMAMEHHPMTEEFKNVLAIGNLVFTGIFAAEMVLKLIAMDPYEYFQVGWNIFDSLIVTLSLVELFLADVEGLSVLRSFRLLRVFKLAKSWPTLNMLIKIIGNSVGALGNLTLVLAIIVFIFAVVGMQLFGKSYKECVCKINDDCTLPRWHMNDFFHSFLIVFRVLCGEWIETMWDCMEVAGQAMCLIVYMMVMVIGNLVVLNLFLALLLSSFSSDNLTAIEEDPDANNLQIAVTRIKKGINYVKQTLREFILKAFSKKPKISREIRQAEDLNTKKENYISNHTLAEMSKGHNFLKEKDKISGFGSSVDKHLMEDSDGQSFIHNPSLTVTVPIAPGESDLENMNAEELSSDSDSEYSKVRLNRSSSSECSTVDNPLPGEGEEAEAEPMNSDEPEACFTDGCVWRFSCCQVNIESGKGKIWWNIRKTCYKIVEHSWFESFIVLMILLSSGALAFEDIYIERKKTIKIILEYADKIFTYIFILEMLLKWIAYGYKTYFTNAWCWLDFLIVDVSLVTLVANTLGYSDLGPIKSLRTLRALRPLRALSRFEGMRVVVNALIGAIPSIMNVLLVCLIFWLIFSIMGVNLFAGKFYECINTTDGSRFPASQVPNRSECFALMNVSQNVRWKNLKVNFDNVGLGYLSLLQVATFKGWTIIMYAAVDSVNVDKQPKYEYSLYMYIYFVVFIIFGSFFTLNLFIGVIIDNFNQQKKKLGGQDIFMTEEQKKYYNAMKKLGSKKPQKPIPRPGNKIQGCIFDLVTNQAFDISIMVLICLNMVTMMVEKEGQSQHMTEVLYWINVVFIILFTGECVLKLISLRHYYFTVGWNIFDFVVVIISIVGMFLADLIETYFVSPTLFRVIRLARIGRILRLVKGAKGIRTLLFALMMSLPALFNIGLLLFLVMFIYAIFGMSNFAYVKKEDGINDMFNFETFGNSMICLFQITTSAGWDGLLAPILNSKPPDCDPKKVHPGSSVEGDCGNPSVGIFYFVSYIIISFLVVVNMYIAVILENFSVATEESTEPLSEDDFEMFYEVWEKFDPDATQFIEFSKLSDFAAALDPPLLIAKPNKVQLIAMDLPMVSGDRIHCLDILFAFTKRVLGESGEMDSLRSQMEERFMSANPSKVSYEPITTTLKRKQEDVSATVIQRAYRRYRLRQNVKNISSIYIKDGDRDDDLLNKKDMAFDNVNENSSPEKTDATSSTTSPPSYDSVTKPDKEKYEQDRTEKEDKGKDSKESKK
Sequence of hNav1.5 (Q14524 whole entry): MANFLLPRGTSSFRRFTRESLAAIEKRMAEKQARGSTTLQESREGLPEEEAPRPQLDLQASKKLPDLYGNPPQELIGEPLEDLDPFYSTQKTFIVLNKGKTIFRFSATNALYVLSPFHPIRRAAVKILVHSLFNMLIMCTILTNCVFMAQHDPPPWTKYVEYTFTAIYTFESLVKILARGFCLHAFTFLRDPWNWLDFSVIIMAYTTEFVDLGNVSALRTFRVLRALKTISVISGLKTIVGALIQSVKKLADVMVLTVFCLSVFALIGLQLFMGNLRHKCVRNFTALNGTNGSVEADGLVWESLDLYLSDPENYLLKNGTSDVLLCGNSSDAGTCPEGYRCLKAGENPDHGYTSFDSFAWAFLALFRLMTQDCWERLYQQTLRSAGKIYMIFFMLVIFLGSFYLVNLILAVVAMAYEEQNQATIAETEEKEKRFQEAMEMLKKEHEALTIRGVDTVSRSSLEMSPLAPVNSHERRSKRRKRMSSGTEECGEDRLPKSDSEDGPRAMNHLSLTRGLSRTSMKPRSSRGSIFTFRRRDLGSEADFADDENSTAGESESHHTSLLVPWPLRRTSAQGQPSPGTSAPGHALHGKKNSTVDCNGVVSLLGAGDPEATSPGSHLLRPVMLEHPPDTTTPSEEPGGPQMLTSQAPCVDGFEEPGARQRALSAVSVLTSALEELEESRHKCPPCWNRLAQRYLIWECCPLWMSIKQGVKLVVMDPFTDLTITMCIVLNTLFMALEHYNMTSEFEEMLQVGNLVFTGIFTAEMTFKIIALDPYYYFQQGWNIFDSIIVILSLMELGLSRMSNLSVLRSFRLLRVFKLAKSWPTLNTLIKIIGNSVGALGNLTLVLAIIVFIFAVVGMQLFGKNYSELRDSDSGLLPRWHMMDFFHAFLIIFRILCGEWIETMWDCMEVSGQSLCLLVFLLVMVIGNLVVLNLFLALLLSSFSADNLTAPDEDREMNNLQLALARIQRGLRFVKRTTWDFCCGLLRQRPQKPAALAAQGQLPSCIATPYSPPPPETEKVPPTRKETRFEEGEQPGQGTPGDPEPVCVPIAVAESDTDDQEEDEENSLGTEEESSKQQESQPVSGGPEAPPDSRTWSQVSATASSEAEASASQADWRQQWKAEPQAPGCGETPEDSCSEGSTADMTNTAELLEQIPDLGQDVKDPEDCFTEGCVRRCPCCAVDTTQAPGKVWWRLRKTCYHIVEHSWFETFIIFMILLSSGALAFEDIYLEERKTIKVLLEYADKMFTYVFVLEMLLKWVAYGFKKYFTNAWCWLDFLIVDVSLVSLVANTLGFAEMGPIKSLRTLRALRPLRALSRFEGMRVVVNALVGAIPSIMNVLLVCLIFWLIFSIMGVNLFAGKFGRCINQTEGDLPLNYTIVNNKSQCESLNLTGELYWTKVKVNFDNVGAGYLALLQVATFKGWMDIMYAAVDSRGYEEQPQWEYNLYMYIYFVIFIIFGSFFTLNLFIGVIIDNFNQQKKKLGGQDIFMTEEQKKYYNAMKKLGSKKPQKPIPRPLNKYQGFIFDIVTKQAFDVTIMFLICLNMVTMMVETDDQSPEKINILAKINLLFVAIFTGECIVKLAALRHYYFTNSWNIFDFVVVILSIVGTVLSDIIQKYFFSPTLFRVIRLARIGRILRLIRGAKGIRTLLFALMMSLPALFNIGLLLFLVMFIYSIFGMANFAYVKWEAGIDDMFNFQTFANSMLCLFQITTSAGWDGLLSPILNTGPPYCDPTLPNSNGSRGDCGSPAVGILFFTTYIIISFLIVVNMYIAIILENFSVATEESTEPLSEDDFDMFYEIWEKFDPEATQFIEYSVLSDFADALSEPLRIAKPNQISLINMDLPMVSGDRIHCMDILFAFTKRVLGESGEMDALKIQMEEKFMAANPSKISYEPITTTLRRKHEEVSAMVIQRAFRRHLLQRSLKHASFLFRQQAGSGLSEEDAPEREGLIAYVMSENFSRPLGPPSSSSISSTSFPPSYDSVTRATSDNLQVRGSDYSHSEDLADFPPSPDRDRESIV

The pIC50 is −log10 of the IC50, conventionally taken in molar units. For the compound `C#CC[C@H](N)C(=O)N[C@@H](Cc1ccc(O)cc1)C(=O)N[C@H]1CSSC[C@@H]2NC(=O)[C@@H]3CSSC[C@@H](C(=O)N[C@@H](CCCNC(=N)N)C(=O)N[C@@H](CCCCN)C(=O)N[C@@H](Cc4ccc(O)cc4)C(=O)N[C@H](C(N)=O)[C@@H](C)CC)NC(=O)[C@H](Cc4c[nH]c5ccccc45)NC(=O)[C@H](CC(C)C)NC(=O)[C@H](CCCCN)NC(=O)[C@H](CSSC[C@H](NC(=O)[C@H]([C@@H](C)O)NC(=O)[C@H](Cc4c[nH]c5ccccc45)NC(=O)[C@H](CCCC)NC(=O)[C@H](Cc4c[nH]c5ccccc45)NC(=O)[C@H](CCCCN)NC(=O)[C@H](CCC(N)=O)NC1=O)C(=O)N[C@@H](CC(=O)O)C(=O)N[C@@H](CO)C(=O)N[C@@H](CCCCN)C(=O)N[C@@H](CCCNC(=N)N)C(=O)N[C@@H](C)C(=O)N3)NC(=O)[C@H](CCC(=O)O)NC(=O)[C@H](CC(C)C)NC(=O)CNC(=O)[C@H](CCC(=O)O)NC2=O` [compound 313], the pIC50 at hNav1.7 was 9.37; at hNav1.5, 5.36; on hNav1.4, 6.02.
In the case of `C#CC[C@@H]1NC(=O)[C@H](CC(=O)O)NC(=O)[C@@H]2CSSC[C@@H]3NC(=O)[C@H](CCC(=O)O)NC(=O)[C@H](CC(C)C)NC(=O)CNC(=O)[C@H](CCC(=O)O)NC(=O)[C@H](CSSC[C@H](NC(=O)[C@@H](N)Cc4ccc(O)cc4)C(=O)N[C@@H](CCC(N)=O)C(=O)N[C@@H](CCCCN)C(=O)N[C@@H](Cc4c[nH]c5ccccc45)C(=O)N[C@@H](CCCC)C(=O)N[C@@H](Cc4c[nH]c5ccccc45)C(=O)N[C@@H]([C@@H](C)O)C(=O)N2)NC(=O)[C@H](CSSC[C@@H](C(=O)N[C@@H](CCCNC(=N)N)C(=O)N[C@@H](CCCCN)C(=O)N[C@@H](Cc2ccc(O)cc2)C(=O)N[C@H](C(N)=O)[C@@H](C)CC)NC(=O)[C@H](Cc2c[nH]c4ccccc24)NC(=O)[C@H](CC(C)C)NC(=O)[C@H](CCCCN)NC3=O)NC(=O)[C@H](C)NC(=O)[C@H](CCCNC(=N)N)NC(=O)[C@H](CCCCN)NC1=O` [compound 315], the negative-log IC50 (pIC50) at hNav1.7 was 8.89; at hNav1.5, 5.61; at hNav1.4, 6.08.
As for `C#CC[C@@H]1NC(=O)[C@H](CCCNC(=N)N)NC(=O)[C@H](CCCCN)NC(=O)[C@H](CO)NC(=O)[C@H](CC(=O)O)NC(=O)[C@@H]2CSSC[C@@H]3NC(=O)[C@H](CCC(=O)O)NC(=O)[C@H](CC(C)C)NC(=O)CNC(=O)[C@H](CCC(=O)O)NC(=O)[C@H](CSSC[C@H](NC(=O)[C@@H](N)Cc4ccc(O)cc4)C(=O)N[C@@H](CCC(N)=O)C(=O)N[C@@H](CCCCN)C(=O)N[C@@H](Cc4c[nH]c5ccccc45)C(=O)N[C@@H](CCCC)C(=O)N[C@@H](Cc4c[nH]c5ccccc45)C(=O)N[C@@H]([C@@H](C)O)C(=O)N2)NC(=O)[C@H](CSSC[C@@H](C(=O)N[C@@H](CCCNC(=N)N)C(=O)N[C@@H](CCCCN)C(=O)N[C@@H](Cc2ccc(O)cc2)C(=O)N[C@H](C(N)=O)[C@@H](C)CC)NC(=O)[C@H](Cc2c[nH]c4ccccc24)NC(=O)[C@H](CC(C)C)NC(=O)[C@H](CCCCN)NC3=O)NC1=O` [compound 316], the values for the negative-log IC50 (pIC50) on hNav1.7, at hNav1.5 and on hNav1.4 were 8.75, 5.43 and 6.15, respectively.
In the case of `C#CC[C@@H]1NC(=O)[C@@H]2CSSC[C@H](NC(=O)[C@@H](N)Cc3ccc(O)cc3)C(=O)N[C@@H](CCC(N)=O)C(=O)N[C@@H](CCCCN)C(=O)N[C@@H](Cc3c[nH]c4ccccc34)C(=O)N[C@@H](CCCC)C(=O)N[C@@H](Cc3c[nH]c4ccccc34)C(=O)N[C@@H]([C@@H](C)O)C(=O)N[C@H]3CSSC[C@H](NC(=O)[C@H](CCC(=O)O)NC(=O)[C@H](CC(C)C)NC(=O)CNC1=O)C(=O)N[C@@H](CCCCN)C(=O)N[C@@H](CC(C)C)C(=O)N[C@@H](Cc1c[nH]c4ccccc14)C(=O)N[C@H](C(=O)N[C@@H](CCCNC(=N)N)C(=O)N[C@@H](CCCCN)C(=O)N[C@@H](Cc1ccc(O)cc1)C(=O)N[C@H](C(N)=O)[C@@H](C)CC)CSSC[C@H](NC(=O)[C@H](C)NC(=O)[C@H](CCCNC(=N)N)NC(=O)[C@H](CCCCN)NC(=O)[C@H](CO)NC(=O)[C@H](CC(=O)O)NC3=O)C(=O)N2` [compound 317], the negative logarithm of the IC50 (pIC50) on hNav1.7 is 8.42; on hNav1.5, 5.45; at hNav1.4, 6.21.
As for `C#CC[C@H](N)C(=O)N[C@@H](Cc1ccc(O)cc1)C(=O)N[C@H]1CSSC[C@@H]2NC(=O)[C@@H]3CSSC[C@@H](C(=O)N[C@@H](CCCNC(=N)N)C(=O)N[C@@H](CCCCN)C(=O)N[C@@H](CCC(=O)O)C(=O)N[C@H](C(N)=O)[C@@H](C)CC)NC(=O)[C@H](Cc4c[nH]c5ccccc45)NC(=O)[C@H](CC(C)C)NC(=O)[C@H](CCCCN)NC(=O)[C@H](CSSC[C@H](NC(=O)[C@H]([C@@H](C)O)NC(=O)[C@H](Cc4c[nH]c5ccccc45)NC(=O)[C@H](CCCC)NC(=O)[C@H](Cc4c[nH]c5ccccc45)NC(=O)[C@H](CCCCN)NC(=O)[C@H](CCC(N)=O)NC1=O)C(=O)N[C@@H](CC(=O)O)C(=O)N[C@@H](CO)C(=O)N[C@@H](CCCCN)C(=O)N[C@@H](CCCNC(=N)N)C(=O)N[C@@H](C)C(=O)N3)NC(=O)[C@H](CCCNC(=N)N)NC(=O)[C@H](CC(C)C)NC(=O)CNC(=O)[C@H](CCC(=O)O)NC2=O` [compound 328], the figures for the negative-log IC50 (pIC50) at hNav1.7, at hNav1.5 and at hNav1.4 were 9.29, 5.52 and 6.89, respectively.
As to `C#CC[C@H](N)C(=O)N[C@H]1CSSC[C@@H]2NC(=O)[C@@H]3CSSC[C@@H](C(=O)N[C@@H](CCCNC(=N)N)C(=O)N[C@@H](CCCCN)C(=O)N[C@@H](CCC(=O)O)C(=O)N[C@H](C(N)=O)[C@@H](C)CC)NC(=O)[C@H](Cc4c[nH]c5ccccc45)NC(=O)[C@H](CC(C)C)NC(=O)[C@H](CCCCN)NC(=O)[C@H](CSSC[C@H](NC(=O)[C@H]([C@@H](C)O)NC(=O)[C@H](Cc4c[nH]c5ccccc45)NC(=O)[C@H](CCCC)NC(=O)[C@H](Cc4c[nH]c5ccccc45)NC(=O)[C@H](CCCCN)NC(=O)[C@H](CCC(N)=O)NC1=O)C(=O)N[C@@H](CC(=O)O)C(=O)N[C@@H](CO)C(=O)N[C@@H](CCCCN)C(=O)N[C@@H](CCCNC(=N)N)C(=O)N[C@@H](C)C(=O)N3)NC(=O)[C@H](CCCNC(=N)N)NC(=O)[C@H](CC(C)C)NC(=O)CNC(=O)[C@H](CCC(=O)O)NC2=O` [compound 329], the negative logarithm of the IC50 (pIC50) on hNav1.7 is 9.57; on hNav1.5, 5.34; on hNav1.4, 6.83.
With `C#CC[C@@H]1NC(=O)[C@H](CC(=O)O)NC(=O)[C@@H]2CSSC[C@@H]3NC(=O)[C@H](CCCNC(=N)N)NC(=O)[C@H](CC(C)C)NC(=O)CNC(=O)[C@H](CCC(=O)O)NC(=O)[C@H](CSSC[C@H](NC(=O)[C@@H](N)Cc4ccc(O)cc4)C(=O)N[C@@H](CCC(N)=O)C(=O)N[C@@H](CCCCN)C(=O)N[C@@H](Cc4c[nH]c5ccccc45)C(=O)N[C@@H](CCCC)C(=O)N[C@@H](Cc4c[nH]c5ccccc45)C(=O)N[C@@H]([C@@H](C)O)C(=O)N2)NC(=O)[C@H](CSSC[C@@H](C(=O)N[C@@H](CCCNC(=N)N)C(=O)N[C@@H](CCCCN)C(=O)N[C@@H](CCC(=O)O)C(=O)N[C@H](C(N)=O)[C@@H](C)CC)NC(=O)[C@H](Cc2c[nH]c4ccccc24)NC(=O)[C@H](CC(C)C)NC(=O)[C@H](CCCCN)NC3=O)NC(=O)[C@H](C)NC(=O)[C@H](CCCNC(=N)N)NC(=O)[C@H](CCCCN)NC1=O` [compound 330], the pIC50 on hNav1.7 was 9.12; on hNav1.5 it was 5.22; at hNav1.4 it was 6.65.
Consider `C#CC[C@@H]1NC(=O)[C@H](CCCNC(=N)N)NC(=O)[C@H](CCCCN)NC(=O)[C@H](CO)NC(=O)[C@H](CC(=O)O)NC(=O)[C@@H]2CSSC[C@@H]3NC(=O)[C@H](CCCNC(=N)N)NC(=O)[C@H](CC(C)C)NC(=O)CNC(=O)[C@H](CCC(=O)O)NC(=O)[C@H](CSSC[C@H](NC(=O)[C@@H](N)Cc4ccc(O)cc4)C(=O)N[C@@H](CCC(N)=O)C(=O)N[C@@H](CCCCN)C(=O)N[C@@H](Cc4c[nH]c5ccccc45)C(=O)N[C@@H](CCCC)C(=O)N[C@@H](Cc4c[nH]c5ccccc45)C(=O)N[C@@H]([C@@H](C)O)C(=O)N2)NC(=O)[C@H](CSSC[C@@H](C(=O)N[C@@H](CCCNC(=N)N)C(=O)N[C@@H](CCCCN)C(=O)N[C@@H](CCC(=O)O)C(=O)N[C@H](C(N)=O)[C@@H](C)CC)NC(=O)[C@H](Cc2c[nH]c4ccccc24)NC(=O)[C@H](CC(C)C)NC(=O)[C@H](CCCCN)NC3=O)NC1=O` [compound 331], for which the pIC50 at hNav1.7 is 9.31; on hNav1.5, 5.45; on hNav1.4 it was 6.98.
On to `C#CC[C@@H]1NC(=O)[C@@H]2CSSC[C@H](NC(=O)[C@@H](N)Cc3ccc(O)cc3)C(=O)N[C@@H](CCC(N)=O)C(=O)N[C@@H](CCCCN)C(=O)N[C@@H](Cc3c[nH]c4ccccc34)C(=O)N[C@@H](CCCC)C(=O)N[C@@H](Cc3c[nH]c4ccccc34)C(=O)N[C@@H]([C@@H](C)O)C(=O)N[C@H]3CSSC[C@H](NC(=O)[C@H](CCCNC(=N)N)NC(=O)[C@H](CC(C)C)NC(=O)CNC1=O)C(=O)N[C@@H](CCCCN)C(=O)N[C@@H](CC(C)C)C(=O)N[C@@H](Cc1c[nH]c4ccccc14)C(=O)N[C@H](C(=O)N[C@@H](CCCNC(=N)N)C(=O)N[C@@H](CCCCN)C(=O)N[C@@H](CCC(=O)O)C(=O)N[C@H](C(N)=O)[C@@H](C)CC)CSSC[C@H](NC(=O)[C@H](C)NC(=O)[C@H](CCCNC(=N)N)NC(=O)[C@H](CCCCN)NC(=O)[C@H](CO)NC(=O)[C@H](CC(=O)O)NC3=O)C(=O)N2` [compound 332], for which the negative-log IC50 (pIC50) at hNav1.7 was 8.44; at hNav1.5, 5.51; on hNav1.4, 6.90. At hNav1.4 (ratio of PX tonic IC50 values), the Nav1.4/Nav1.7 came out at 34.
